System: plants
Experiment: Test D pre-emergence, other plants of Tables D1 and D3
Format: in vivo
Conditions: 20 DAA; for damage to plant (100=total damage to plant; 0=no damage to plant), BIDPI / damage to plant (100=total damage to plant; 0=no damage to plant), BRAPL / damage to plant (100=total damage to plant; 0=no damage to plant), CYPES / damage to plant (100=total damage to plant; 0=no damage to plant), EPHHL / damage to plant (100=total damage to plant; 0=no damage to plant), GLXMA / damage to plant (100=total damage to plant; 0=no damage to plant), IPOHE / damage to plant (100=total damage to plant; 0=no damage to plant), SORVU: preemergent; for CHEAL damage rating / GALAP damage rating / KCHSC damage rating / LOLPE damage rating / POAAN damage rating / STEME damage rating / VERPE damage rating: pre-emergence, 100=total damage, 0=no damage
Method in brief: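 Seeds treated with herbicide safener; sown in soil; glasshouse, 16 h light, 65% humidity. Sprayed day 1 (pre) or ~day 12 (post). Spray in 0.2% v/v adjuvant. Scored 0–100 damage: 20 DAA pre, 15 d post.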

Structure (SMILES): CN1CC(c2cnn(C)c2C(F)(F)F)C(C(=O)Nc2cccc(F)c2F)C1=O (racemic) [Compound 25]
- damage to plant (100=total damage to plant; 0=no damage to plant), BIDPI (rate 15): 0
- damage to plant (100=total damage to plant; 0=no damage to plant), BIDPI (rate 30): 0
- damage to plant (100=total damage to plant; 0=no damage to plant), BIDPI (rate 60): 0
- damage to plant (100=total damage to plant; 0=no damage to plant), BIDPI (rate 130): 0
- damage to plant (100=total damage to plant; 0=no damage to plant), BIDPI (rate 250): 0
- damage to plant (100=total damage to plant; 0=no damage to plant), BIDPI (rate 500): 0
- damage to plant (100=total damage to plant; 0=no damage to plant), BRAPL (rate 15): 0
- damage to plant (100=total damage to plant; 0=no damage to plant), BRAPL (rate 30): 0
- damage to plant (100=total damage to plant; 0=no damage to plant), BRAPL (rate 60): 30
- damage to plant (100=total damage to plant; 0=no damage to plant), BRAPL (rate 130): 80
- damage to plant (100=total damage to plant; 0=no damage to plant), BRAPL (rate 250): 90
- damage to plant (100=total damage to plant; 0=no damage to plant), BRAPL (rate 500): 90
- CHEAL damage rating (Rates 15): 0
- CHEAL damage rating (Rates 30): 0
- CHEAL damage rating (Rates 60): 0
- CHEAL damage rating (Rates 130): 0
- CHEAL damage rating (Rates 250): 20
- CHEAL damage rating (Rates 500): 50
- damage to plant (100=total damage to plant; 0=no damage to plant), CYPES (rate 15): 0
- damage to plant (100=total damage to plant; 0=no damage to plant), CYPES (rate 30): 0
- damage to plant (100=total damage to plant; 0=no damage to plant), CYPES (rate 60): 0
- damage to plant (100=total damage to plant; 0=no damage to plant), CYPES (rate 130): 0
- damage to plant (100=total damage to plant; 0=no damage to plant), CYPES (rate 250): 0
- damage to plant (100=total damage to plant; 0=no damage to plant), CYPES (rate 500): 0
- damage to plant (100=total damage to plant; 0=no damage to plant), EPHHL (rate 15): 0
- damage to plant (100=total damage to plant; 0=no damage to plant), EPHHL (rate 30): 0
- damage to plant (100=total damage to plant; 0=no damage to plant), EPHHL (rate 60): 0
- damage to plant (100=total damage to plant; 0=no damage to plant), EPHHL (rate 130): 0
- damage to plant (100=total damage to plant; 0=no damage to plant), EPHHL (rate 250): 0
- damage to plant (100=total damage to plant; 0=no damage to plant), EPHHL (rate 500): 0
- GALAP damage rating (Rates 15): 0
- GALAP damage rating (Rates 30): 0
- GALAP damage rating (Rates 60): 0
- GALAP damage rating (Rates 130): 0
- GALAP damage rating (Rates 250): 0
- GALAP damage rating (Rates 500): 0
- damage to plant (100=total damage to plant; 0=no damage to plant), GLXMA (rate 15): 0
- damage to plant (100=total damage to plant; 0=no damage to plant), GLXMA (rate 30): 0
- damage to plant (100=total damage to plant; 0=no damage to plant), GLXMA (rate 60): 0
- damage to plant (100=total damage to plant; 0=no damage to plant), GLXMA (rate 130): 0
- damage to plant (100=total damage to plant; 0=no damage to plant), GLXMA (rate 250): 0
- damage to plant (100=total damage to plant; 0=no damage to plant), GLXMA (rate 500): 0
- damage to plant (100=total damage to plant; 0=no damage to plant), IPOHE (rate 15): 0
- damage to plant (100=total damage to plant; 0=no damage to plant), IPOHE (rate 30): 0
- damage to plant (100=total damage to plant; 0=no damage to plant), IPOHE (rate 60): 0
- damage to plant (100=total damage to plant; 0=no damage to plant), IPOHE (rate 130): 0
- damage to plant (100=total damage to plant; 0=no damage to plant), IPOHE (rate 250): 0
- damage to plant (100=total damage to plant; 0=no damage to plant), IPOHE (rate 500): 0
- KCHSC damage rating (Rates 15): 0
- KCHSC damage rating (Rates 30): 0
- KCHSC damage rating (Rates 60): 0
- KCHSC damage rating (Rates 130): 0
- KCHSC damage rating (Rates 250): 0
- KCHSC damage rating (Rates 500): 0
- LOLPE damage rating (Rates 15): 0
- LOLPE damage rating (Rates 30): 0
- LOLPE damage rating (Rates 60): 0
- LOLPE damage rating (Rates 130): 0
- LOLPE damage rating (Rates 250): 0
- LOLPE damage rating (Rates 500): 0
- POAAN damage rating (Rates 15): 0
- POAAN damage rating (Rates 30): 0
- POAAN damage rating (Rates 60): 0
- POAAN damage rating (Rates 130): 0
- POAAN damage rating (Rates 250): 0
- POAAN damage rating (Rates 500): 0
- damage to plant (100=total damage to plant; 0=no damage to plant), SORVU (rate 15): 0
- damage to plant (100=total damage to plant; 0=no damage to plant), SORVU (rate 30): 0
- damage to plant (100=total damage to plant; 0=no damage to plant), SORVU (rate 60): 0
- damage to plant (100=total damage to plant; 0=no damage to plant), SORVU (rate 130): 0
- damage to plant (100=total damage to plant; 0=no damage to plant), SORVU (rate 250): 0
- damage to plant (100=total damage to plant; 0=no damage to plant), SORVU (rate 500): 0
- STEME damage rating (Rates 15): 0
- STEME damage rating (Rates 30): 0
- STEME damage rating (Rates 60): 0
- STEME damage rating (Rates 130): 0
- STEME damage rating (Rates 250): 0
- STEME damage rating (Rates 500): 50
- VERPE damage rating (Rates 15): 0
- VERPE damage rating (Rates 30): 0
- VERPE damage rating (Rates 60): 0
- VERPE damage rating (Rates 130): 0
- VERPE damage rating (Rates 250): 0
- VERPE damage rating (Rates 500): 10

From US20220281848A1, “PYRAZOLE-SUBSTITUTED PYRROLIDINONES AS HERBICIDES” (FMC Corporation, priority 2019, published 2022)
